Measurements: patent US20210284647A1, “N-(3-(IMIDAZO[1,2-B]PYRIDAZIN-3-YLETHYNYL)-4-METHYLPHENYL)-5-PHENYL-4,5-DIHYDRO-1H-PYRAZOLE-1-CARBOXAMIDE DERIVATIVE, AND PHARMACEUTICAL COMPOSITION CONTAINING SAME AS ACTIVE INGREDIENT FOR TREATING KINASE-RELATED DISEASES” (VORONOIBIO INC., priority 2018, published 2021)
Where a name gives a salt, the structure may show the parent alone.

What was measured:
human GST-RIPK1 = molecular target: T1, human GST-RIPK1 (Homo sapiens, UniProt Q13546); assay: RIPK1 inhibitory activity (ADP-Glo kinase assay); assay type: biochemical; details: human GST-RIPK1 10 ng, ATP 50 uM, 25° C. for 4 hours, read-out: Enzyme IC50
T1 construct: GST; purchased signalchem
T1 sequence (Q13546 1-375 limits assumed): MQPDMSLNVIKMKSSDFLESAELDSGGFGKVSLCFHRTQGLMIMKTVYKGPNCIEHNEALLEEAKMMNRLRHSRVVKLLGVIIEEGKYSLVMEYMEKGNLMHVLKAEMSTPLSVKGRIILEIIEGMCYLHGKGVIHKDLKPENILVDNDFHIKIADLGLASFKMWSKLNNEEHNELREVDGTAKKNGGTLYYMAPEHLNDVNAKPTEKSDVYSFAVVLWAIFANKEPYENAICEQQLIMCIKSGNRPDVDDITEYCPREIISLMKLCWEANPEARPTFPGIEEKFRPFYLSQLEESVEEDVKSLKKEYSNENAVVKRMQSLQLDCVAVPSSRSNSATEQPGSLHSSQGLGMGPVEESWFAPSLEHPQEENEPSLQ
Method: The following experiment was performed to evaluate the inhibitory activity of the example compounds according to the present invention against RIPK1 (receptor-interacting serine/threonine protein kinase 1).
The example compound was reacted with the purified human GST-RIPK1 (1375, signalchem) enzyme to evaluate the enzyme inhibitory activity in the following manner. The composition of the reaction buffer used herein was as follows: 40 mM Tris-Hcl pH 7.4, 20 mM MgCl2, 0.5 mg/ml, BSA and 0.5 uM DTT. All the test materials were reacted in the reaction buffer. After reacting human GST-RIPK1 (1375, 10 ng), purified ATP (50 uM) and a specific substrate solution at 25° C. for 4 hours, the enzyme activity was confirmed using an in vitro ADP-Glo™ kinase assay (promega). Luminoscence was measured by reacting the enzyme activity reaction solution, ADP-Glo reaction solution, and enzyme activity detection solution at the ratio of 2:2:1. The degree of enzyme activity inhibition according to the treatment concentration of each compound was calculated based on the fluorescence of the enzyme activity of the solvent control not treated with the compound. At this time, the concentration of each compound inhibiting 50% of the enzyme activity was determined as IC50 (nM). IC50 of each compound was determined with three data sets and calculated using Prism (version 7.01, GraphPad) software.

[1] = tested on: human Jurkat T cells deficient in FADD; assay: Cell protection effect under apoptosis-inducing condition (TNF-α); assay type: cell-based; details: 40 ng of TNF-α, 50 hours, CellTiter-Glo, read-out: I2.I Cell EC50
Method: The cell protection effect of the compounds according to the present invention under the condition of inducing apoptosis by TNF-α was confirmed by […]. An apoptosis inducing factor such as TNF-α was treated to induce apoptosis of human Jurkat T cells deficient in FADD, to which the example compound was treated, and the cell protection effect was confirmed through the following analysis. Jurkat T cells deficient in FADD were cultured using RPMI medium (Hyclone) containing 10% FBS. When performing the test, the cells were seeded in a 96-well plate containing a medium suitable for the cell line at the density of 10,000 cells/well, and cultured in a 37° C. 5% CO2 incubator for 24 hours. Then, each well was treated with 40 ng of TNF-α, and the compounds prepared in the above examples were each treated with a 3-fold concentration gradient with 1 μM as the highest concentration. As the solvent control, dimethyl sulfoxide (DMSO) was treated at the concentration of 0.05% (v/v), which was the same concentration as that used for the compound treatment. Then, the cells were cultured for 50 hours. To confirm the degree of viability of the cells, a mixture provided in CellTiter-Gloe Luminescent Cell Viability Assay Kit (Promega) was added to the culture medium of the cells, followed by further culture at 37° C. for 30 minutes. Then, luminescence fluorescence was measured. The degree of inhibition of apoptosis induction according to the treatment concentration of each compound was calculated based on the fluorescence of the solvent control cells not treated with the compound. At this time, the concentration of each compound inhibiting 50% was determined as EC50 (μM). EC50 of each compound was calculated using Prism (version 7.01, GraphPad) software.

Compound | IC50 (human GST-RIPK1) [nM] | EC50 [1] [nM]
O=C(Nc1cccn2c(C#Cc3cccc(NC(=O)N4N=CCC4c4ccccc4)c3)cnc12)C1CCC1 (stereo not drawn) [Example 63, N-(3-((8-(cyclobutanecarboxamido)imidazo[1,2-a]pyridin-3-yl)ethynyl)phenyl)-5-phenyl-4,5-dihydro-1H-pyrazole-1-carboxamide 2,2,2-trifluoroacetate] | 39.6 | 0.9
O=C(Nc1cccc(C#Cc2cnc3cccnn23)c1)N1N=CCC1c1ccc2c(c1)OCO2 (stereo not drawn) [Example 39, 5-(benzo[d][1,3]dioxol-5-yl)-N-(3-(imidazo[1,2-b]pyridazin-3-ylethynyl)phenyl)-4,5-dihydro-1H-pyrazole-1-carboxamide 2,2,2-trifluoroacetate] | 4.9 | 2.8
CNC(=O)Nc1cccn2c(C#Cc3cccc(NC(=O)N4N=CCC4c4ccccc4)c3)cnc12 (stereo not drawn) [Example 61, N-(3-((8-(3-methylureido)imidazo[1,2-a]pyridin-3-yl)ethynyl)phenyl)-5-phenyl-4,5-dihydro-1H-pyrazole-1-carboxamide 2,2,2-trifluoroacetate] | 96.7 | 0.4
Cn1ccc(Nc2cccn3c(C#Cc4cccc(NC(=O)N5N=CCC5c5ccccc5)c4)cnc23)n1 (stereo not drawn) [Example 68, N-(3-((8-((1-methyl-1H-pyrazol-3-yl)amino)imidazo[1,2-a]pyridin-3-yl)ethynyl)phenyl)-5-phenyl-4,5-dihydro-1H-pyrazole-1-carboxamide 2,2,2-trifluoroacetate] | 38.6 | 0.12
O=C(Nc1cccn2c(C#Cc3cccc(NC(=O)N4N=CCC4c4ccccc4)c3)cnc12)C1CC1 (stereo not drawn) [Example 62, N-(3-((8-(cyclopropanecarboxamido)imidazo[1,2-a]pyridin-3-yl)ethynyl)phenyl)-5-phenyl-4,5-dihydro-1H-pyrazole-1-carboxamide 2,2,2-trifluoroacetate] | 179 | 1.7
Cc1ccc(NC(=O)N2N=CCC2c2cc(F)cc(F)c2)cc1C#Cc1cnc2cccnn12 (stereo not drawn) [Example 4, 5-(3,5-difluorophenyl)-N-(3-(imidazo[1,2-b]pyridazin-3-ylethynyl)-4-methylphenyl)-4,5-dihydro-1H-pyrazole-1-carboxamide 2,2,2-trifluoroacetate] | 7.68 | 1.7
COC(=O)Nc1cccn2c(C#Cc3cccc(NC(=O)N4N=CCC4c4ccccc4)c3)cnc12 (stereo not drawn) [Example 64, methyl (3-((3-(5-phenyl-4,5-dihydro-1H-pyrazole-1-carboxamido)phenyl)ethynyl)imidazo[1,2-a]pyridin-8-yl)carbamate] | 119 | 1.1
Cn1cc(Nc2cccn3c(C#Cc4cccc(NC(=O)N5N=CCC5c5ccccc5)c4)cnc23)cn1 (stereo not drawn) [Example 67, N-(3-((8-((1-methyl-1H-pyrazol-4-yl)amino)imidazo[1,2-a]pyridin-3-yl)ethynyl)phenyl)-5-phenyl-4,5-dihydro-1H-pyrazole-1-carboxamide 2,2,2-trifluoroacetate] | 19 | 0.08
O=C(c1cccc(C#Cc2cnc3cccnn23)c1)N1N=CCC1c1ccccc1 (stereo not drawn) [Example 53, (3-(imidazo[1,2-b]pyridazin-3-ylethynyl)phenyl)(5-phenyl-4,5-dihydro-1H-pyrazol-1-yl)methanone 2,2,2-trifluoroacetate] | 731 | 975

The remaining lines, values ahead:

IC50 (human GST-RIPK1) [nM] | EC50 [1] [nM] | Compound
277 | 6.7 | S=C(Nc1cccc(C#Cc2cnc3cccnn23)c1)N1N=CCC1c1ccccc1 (stereo not drawn) [Example 43, N-(3-(imidazo[1,2-b]pyridazin-3-ylethynyl)phenyl)-5-phenyl-4,5-dihydro-1H-pyrazole-1-carbothioamide]
1.9 | 0.3 | O=C(Nc1ccnc(C#Cc2cnc3cccnn23)c1)N1N=CC[C@H]1c1ccccc1 [Example 49, (S)—N-(2-(imidazo[1,2-b]pyridazin-3-ylethynyl)pyridin-4-yl)-5-phenyl-4,5-dihydro-1H-pyrazole-1-carboxamide 2,2,2-trifluoroacetate]
15 | 3.6 | O=C(Nc1cccc(C#Cc2cnc3ncccn23)c1)N1N=CCC1c1ccccc1 (stereo not drawn) [Example 58, N-(3-(imidazo[1,2-a]pyrimidin-3-ylethynyl)phenyl)-5-phenyl-4,5-dihydro-1H-pyrazole-1-carboxamide]
775 | > 1000 | O=C(Nc1cc(C#Cc2cnc3cccnn23)ccn1)N1N=CCC1c1ccccc1 (stereo not drawn) [Example 52, N-(4-(imidazo[1,2-b]pyridazin-3-ylethynyl)pyridin-2-yl)-5-phenyl-4,5-dihydro-1H-pyrazole-1-carboxamide 2,2,2-trifluoroacetate]
32.6 | > 1000 | Cc1ccc(C(=O)N2N=CCC2c2ccccc2)cc1C#Cc1cnc2cccnn12 (stereo not drawn) [Example 54, (3-(imidazo[1,2-b]pyridazin-3-ylethynyl)-4-methylphenyl)(5-phenyl-4,5-dihydro-1H-pyrazol-1-yl)methanone 2,2,2-trifluoroacetate]
10.1 | 0.8 | O=C(Nc1cccc(C#Cc2cnc3cccnn23)c1)N1N=CCC1c1cccc(F)c1 (stereo not drawn) [Example 28, 5-(3-fluorophenyl)-N-(3-(imidazo[1,2-b]pyridazin-3-ylethynyl)phenyl)-4,5-dihydro-1H-pyrazole-1-carboxamide 2,2,2-trifluoroacetate]
134 | 1.9 | Cc1ccc(NC(=O)N2N=CCC2c2ccc(C(F)(F)F)cc2)cc1C#Cc1cnc2cccnn12 (stereo not drawn) [Example 7, N-(3-(imidazo[1,2-b]pyridazin-3-ylethynyl)-4-methylphenyl)-5-(4-(trifluoromethyl)phenyl)-4,5-dihydro-1H-pyrazole-1-carboxamide 2,2,2-trifluoroacetate]
> 1000 | > 1000 | O=C(Nc1ccc(C#Cc2cnc3cccnn23)cc1)N1N=CCC1c1ccccc1 (stereo not drawn) [Example 22, N-(4-(imidazo[1,2-b]pyridazin-3-ylethynyl)phenyl)-5-phenyl-4,5-dihydro-1H-pyrazole-1-carboxamide 2,2,2-trifluoroacetate]
1.22 | 1.84 | O=C(Nc1cncc(C#Cc2cnc3cccnn23)c1)N1N=CCC1c1ccccc1 (stereo not drawn) [Example 51, N-(5-(imidazo[1,2-b]pyridazin-3-ylethynyl)pyridin-3-yl)-5-phenyl-4,5-dihydro-1H-pyrazole-1-carboxamide 2,2,2--trifluoroacetate]
503 | 321 | Cc1ccc(NC(=O)N2N=CC[C@@H]2c2ccc(F)cc2)cc1C#Cc1cnc2cccnn12 [Example 13, (R)-5-(4-fluorophenyl)-N-(3-(imidazo[1,2-b]pyridazin-3-ylethynyl)-4-methylphenyl)-4,5-dihydro-1H-pyrazole-1-carboxamide 2,2,2-trifluoroacetate]
2.98 | 12 | O=C(Nc1cccc(C#Cc2cnc3cccnn23)c1)N1N=CCC1c1cccnc1 (stereo not drawn) [Example 36, N-(3-(imidazo[1,2-b]pyridazin-3-ylethynyl)phenyl)-5-(pyridin-3-yl)-4,5-dihydro-1H-pyrazole-1-carboxamide 2,2,2-trifluoroacetate]
0.52 | 0.021 | O=C(Nc1cccc(C#Cc2cnc3cccnn23)c1)N1N=CC[C@H]1c1ccccc1 [Example 20, (S)—N-(3-(imidazo[1,2-b]pyridazin-3-ylethynyl)phenyl)-5-phenyl-4,5-dihydro-1H-pyrazole-1-carboxamide hydrochloride]
